# Values of other authors as cited in US20050214389A1, “Beta-carotene enriched extract from water hyacinth eichhornia crassipes” (Council of Scientific and Industrial Research, priority 2004, published 2005).
# System: polyamine oxidase
# Settings: purified polyamine oxidase from leaves of water hyacinth
row,inhibition of the enzyme,Structure (SMILES)
1,strong inhibitors,NCCCCCCCCN [Octamethylenediamine]
2,strong inhibitors,CCN(CC)CCCC(C)Nc1c2ccc(Cl)cc2nc2ccc(OC)cc12 (stereo not shown) [quinacrine]

row,Structure (SMILES),inhibition of the enzyme
1,O=C(O)c1cc[c]([Hg][Cl])cc1 [p-chloromercuribenzoate],without effect

# Same assay, conditions: substrate of purified polyamine oxidase from leaves of water hyacinth
row,Km,Structure (SMILES)
1,28 mM,NCCCCNCCCN [spermidine]
2,20 mM,NCCCNCCCCNCCCN [spermine]

# System: Enterobacter sp. F2
# Settings: concentrations of from 10-7 to 10-2 mol/L
row,Structure (SMILES),chemotaxis (attraction of F2)
1,C[C@H](N)C(=O)O [alanine],strongly attracted
2,N=C(N)NCCC[C@H](N)C(=O)O [arginine],not
3,NC(=O)C[C@H](N)C(=O)O [asparagine],not
4,N[C@@H](CS)C(=O)O [cysteine],not
5,NCCCC(=O)O [gamma amino butyric acid],strongly attracted
6,N[C@@H](CCC(=O)O)C(=O)O [glutamate],some degrees
7,NC(=O)CC[C@H](N)C(=O)O [glutamine],not
8,NCC(=O)O [glycine],strongly attracted
9,N[C@@H](Cc1c[nH]cn1)C(=O)O [histidine],some degrees
10,CC[C@H](C)[C@H](N)C(=O)O [isoleucine],not
11,CC(C)C[C@H](N)C(=O)O [leucine],strongly attracted
12,NCCCC[C@H](N)C(=O)O [lysine],not
13,CSCC[C@H](N)C(=O)O [methionine],strongly attracted
14,N[C@@H](Cc1ccccc1)C(=O)O [phenylalanine],not
15,O=C(O)[C@@H]1CCCN1 [proline],not
16,N[C@@H](CO)C(=O)O [serine],strongly attracted
17,C[C@@H](O)[C@H](N)C(=O)O [threonine],some degrees
18,N[C@@H](Cc1c[nH]c2ccccc12)C(=O)O [tryptophan],not
19,N[C@@H](Cc1ccc(O)cc1)C(=O)O [tyrosine],not
20,CC(C)[C@H](N)C(=O)O [valine],strongly attracted
